Data on 22 compounds can be found in patent publication US20050101623A1 (Pharmacia Corporation, priority 2003, published 2005).

Several values for one entry are separate records, joined by “and”; a condition that tells them apart may be missing. Equal entries are not always repeated. Structures can show the parent of a compound that is named as a salt. Where two headings read alike, the source gives them in different places.

Assay [1] concerns the target Recombinant MAPKAPK2 (MK-2) (Homo sapiens, UniProt P49137). The assay is described as follows: Determination of MK-2 IC50 (phosphorylation of HSP-peptide, anion exchange resin capture assay). Type of assay: biochemical.
The test system of a further assay is TNFα release, U937 cells. The assay is described as follows: U937 Cell TNFα Release Assay (LPS, ELISA). Type of assay: cell-based, human. To be noted: additional values are replicate IC50 experiments. The procedure: U937 Cell TNFα Release Assay
Differentiation of U937 to monocytic/macrophage-like cells is induced by the addition of phorbol12-myristate 13-acetate (Sigma) at final concentration of 20 ng/ml to a culture of U937 cells at ˜0.5 million cells/ml and incubated for 24 hrs. The cells are centrifuged, washed with PBS and resuspended in fresh media without PMA and incubated for 24 hrs. Cells adherent to the culture flask are harvested by scraping, centrifugation, and resuspended in fresh media to 2 million cells/ml, and 0.2 ml is aliquoted to each of 96 wells in flat-bottom plate. Cells are then incubated for an additional 24 hrs to allow for recovery. The media is removed from the cells, and 0.1 ml of fresh media is added per well. 0.05 ml of serially diluted compound or control vehicle (Media with DMSO) is added to the cells. […] Cells are incubated at 37° C. for 4 hrs. After 4 hrs incubation, supernatants are harvest and assayed by ELISA for the presence of TNFα.
Coating solution was aspirated the following day and wells were blocked with 1 mg/ml gelatin in PBS (plus 1× thimerasol) for 2 days at 4° C. Prior to using, wells were washed 3× with wash buffer (PBS with 0.05% Tween). Cultured media samples were diluted in EIA buffer (5 mg/ml bovine γ-globulin, 1 mg/ml gelatin, 1 ml/l Tween-20, 1 mg/ml thimerasol in PBS), added to wells (0.1 ml/well) in triplicate and allowed to incubate for 1.5 hr at 37° C. in a humidified chamber. […] TNF levels were quantitated from a recombinant human TNFα (R&D Systems #210-TA-010) standard curve using a quadratic parameter fit generated by SoftMaxPRO software. ELISA sensitivity was approximately 30 pg TNF/ml. IC50 values for compounds were generated using BioAssay Solver.

Another assay relates to MK-2. To be noted: cited from earlier work.
The next assay deals with adjuvant arthritis. To be noted: rat; cited from earlier work.
In the next assay the test system is endotoxin-induced shock. The note with it: murine model of endotoxin-induced shock; cited from earlier work.
For assay [2], the system named is collagen-induced arthritis. To be noted: mouse; cited from earlier work.
Where [3] appears, read: MK-2 Avg. IC50, additional values are replicate IC50 experiments.
The mark [4] stands for this setting: Homo sapiens, U-937, 4 h, read-out: TNF Release Assay Avg. IC50, LPS 100 ng/ml, 4 hrs, differentiated U937 cells.
The mark [5] stands for this setting: additional values are replicate IC50 experiments, read-out: MK-2 Avg. IC50.
The mark [6] stands for this setting: Homo sapiens, U-937, 4 h, LPS 100 ng/ml, 4 hrs, differentiated U937 cells, read-out: TNF Release Assay Avg. IC50.

Chain of Recombinant MAPKAPK2 (MK-2) (P49137 whole entry, species assumed): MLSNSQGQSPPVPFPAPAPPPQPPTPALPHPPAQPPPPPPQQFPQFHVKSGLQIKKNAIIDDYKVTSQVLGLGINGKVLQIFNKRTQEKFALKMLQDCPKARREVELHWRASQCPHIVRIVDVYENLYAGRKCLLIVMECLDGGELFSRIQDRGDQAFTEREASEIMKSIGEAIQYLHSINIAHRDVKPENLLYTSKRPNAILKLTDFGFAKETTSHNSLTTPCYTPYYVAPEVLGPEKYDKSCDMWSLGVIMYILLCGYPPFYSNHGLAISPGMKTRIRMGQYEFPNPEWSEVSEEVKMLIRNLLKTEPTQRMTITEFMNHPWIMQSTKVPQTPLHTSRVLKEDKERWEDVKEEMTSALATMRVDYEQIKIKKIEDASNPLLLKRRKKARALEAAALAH

Consider `COCCOC(=O)C1c2[nH]c3ccc(OC)cc3c2C2CCN1C2` (centres unmarked), for which the IC50 in assay [1] (setting [3]) is 4.72 µM and 4.96 µM; with TNFα release, U937 cells (read-out: TNF Release Assay Avg. IC50, LPS 100 ng/ml, 4 hrs, differentiated U937 cells, listed as 15) it was 3.58 µM.

With `COc1ccc2[nH]c3c(c2c1)C1CCN(C1)C3C(=O)OCCO` (centres unmarked), the IC50 in assay [1] (setting [3]) was 5.64 µM; in the assay on TNFα release, U937 cells (setting [4]) it was > 100 µM.

As to `COc1ccc2[nH]c3c(c2c1)C1CCN(C1)C3C(=O)OCCSC` (centres unmarked), the IC50 in assay [1] (setting [3]) is 4.4 µM.

On to `CSc1ccc2[nH]c3c(c2c1)C1CCN(C1)C3C(=O)O` (centres unmarked) [No. 4, 7-(methylthio)-3,4,5,10-tetrahydro-1H-2,5-methanoazepino[3,4-b]indole-1-carboxylic acid], for which the IC50 in the assay with TNFα release, U937 cells (LPS 100 ng/ml, 4 hrs, differentiated U937 cells, read-out: TNF Release Assay Avg. IC50) is > 100 µM.

Turning to `COc1ccc2[nH]c3c(c2c1)C1CCN(C1)C3C(=O)OCC1CCCCC1` (centres unmarked) [No. 15, hydrochloride], in assay [1] (setting [5]), the IC50 was 38.5 µM.

Turning to `C[S+]([O-])c1ccc(-c2nc(-c3ccncc3)c(-c3ccc(F)cc3)[nH]2)cc1` (centres unmarked) [SB203580], in the assay on MK-2, the “inhibition of activation of MK-2” value is on record as “inhibit activation”. Also, the “development of adjuvant arthritis” value with adjuvant arthritis is given as “inhibit the development”. Further, the mortality result with endotoxin-induced shock is recorded as “reduce mortality”. Besides, the “development of collagen-induced arthritis” value in assay [2] is reported as “inhibit the development”.

As to `COc1ccc2[nH]c3c(c2c1)C1CCN(C1)C3C(=O)OC(C)(C)C` (centres unmarked) [compound 41, tert-butyl 7-methoxy-3,4,5,10-tetrahydro-1H-2,5-methanoazepino[3,4-b]indole-1-carboxylate], the IC50 in assay [1] (setting [5]) is 112 µM; in the assay on TNFα release, U937 cells (setting [4]), > 100 µM.

With `COc1ccc2[nH]c3c(c2c1)C1CCN(C1)C3C(=O)OC12CC3CC(CC(C3)C1)C2` (centres unmarked) [compound 42], the IC50 in the assay with TNFα release, U937 cells (setting [4]) is 42.4 µM.

Take `CNC(=O)C1c2[nH]c3ccc(OC)cc3c2C2CCN1C2` (centres unmarked) [compound 44, 7-methoxy-N-methyl-3,4,5,10-tetrahydro-1H-2,5-methanoazepino[3,4-b]indole-1-carboxamide]: the IC50 with TNFα release, U937 cells (setting [6]) was > 100 µM.

For `COc1ccc2[nH]c3c(c2c1)C1CCN(C1)C3C(=O)NCc1ccccc1` (centres unmarked) [compound 45, N-benzyl-7-methoxy-3,4,5,10-tetrahydro-1H-2,5-methanoazepino[3,4-b]indole-1-carboxamide hydrochloride], in assay [1] (setting [3]), the IC50 was > 200 µM.

Turning to `COc1ccc2[nH]c3c(c2c1)C1CCN(C1)C3C(=O)N(C)C` (centres unmarked) [compound 46, 7-methoxy-N,N-dimethyl-3,4,5,10-tetrahydro-1H-2,5-methanoazepino[3,4-b]indole-1-carboxamide], the IC50 in assay [1] (setting [3]) is > 200 µM; in the assay on TNFα release, U937 cells (setting [6]) it was > 100 µM.

As to `O=C(OCc1ccccc1)C1c2[nH]c3ccc(OCc4ccccc4)cc3c2C2CCN1C2` (centres unmarked) [compound 47, benzyl 7-(benzyloxy)-3,4,5,10-tetrahydro-1H-2,5-methanoazepino[3,4-b]indole-1-carboxylate trifluoroacetate], the IC50 in assay [1] (setting [5]) was > 200 µM; with TNFα release, U937 cells (setting [6]) it was 76.7 µM.

`COc1ccc2[nH]c3c(c2c1)C1CCN(C1)C3C(N)=O` (centres unmarked) [compound 48, 7-methoxy-3,4,5,10-tetrahydro-1H-2,5-methanoazepino[3,4-b]indole-1-carboxamide]: the IC50 was > 200 µM in assay [1] (setting [3]) and > 100 µM with TNFα release, U937 cells (setting [6]).

As to `COCCNC(=O)C1c2[nH]c3ccc(OC)cc3c2C2CCN1C2` (centres unmarked) [compound 49, 7-methoxy-N-(2-methoxyethyl)-3,4,5,10-tetrahydro-1H-2,5-methanoazepino[3,4-b]indole-1-carboxamide], the IC50 in the assay with TNFα release, U937 cells (setting [6]) is > 100 µM.

With `COc1ccc2[nH]c3c(c2c1)C1CCN(C1)C3c1ccc[nH]1` (centres unmarked) [compound 50, 7-methoxy-1-(1H-pyrrol-2-yl)-3,4,5,10-tetrahydro-1H-2,5-methanoazepino[3,4-b]indole trifluoroacetate], in assay [1] (setting [5]), the IC50 was > 200 µM.

As for `COc1ccc2[nH]c3c(c2c1)C1CCN(C1)C3C(=O)OC1CCCCC1` (centres unmarked) [hydrochloride], the IC50 with TNFα release, U937 cells (read-out: TNF Release Assay Avg. IC50, LPS 100 ng/ml, 4 hrs, differentiated U937 cells, listed as 38, hydrochloride) was found to be 59.1 µM.

Turning to `COc1ccc2[nH]c3c(c2c1)C1CCN(C1)C3C(=O)OCC(C)(C)C` (centres unmarked) [hydrochloride], the IC50 in assay [1] (setting [3]) came out at 20.6 µM.

As to `CCCCCCOC(=O)C1c2[nH]c3ccc(OC)cc3c2C2CCN1C2` (centres unmarked) [trifluoroacetate], the IC50 in assay [1] (setting [3]) came to 29.7 µM.

`COCCOC(=O)C1c2[nH]c3ccc(O)cc3c2C2CCN1C2` (centres unmarked) [trifluoroacetate]: in assay [1] (setting [3]), the IC50 was found to be 6.88 µM.

For `COCCOC(=O)C1c2[nH]c3ccc(OC)cc3c2C2CCN1C2` (centres unmarked) [trifluoroacetate], the IC50 in assay [1] (setting [3]) turned out to be 6.49 µM.

On to `COc1ccc2[nH]c3c(c2c1)C1CCN(C1)C3C(=O)N(C)OC` (centres unmarked) [trifluoroacetate], for which, in assay [1] (setting [3]), the IC50 was 91 µM and 98.2 µM.

Consider `COc1ccc2[nH]c3c(c2c1)C1CCN(C1)C3C(=O)OC1CCCCC1` (centres unmarked) [trifluoroacetate], for which the IC50 worked out at 45.2 µM in assay [1] (setting [3]) and 50.4 µM in the assay with TNFα release, U937 cells (read-out: TNF Release Assay Avg. IC50, LPS 100 ng/ml, 4 hrs, differentiated U937 cells, listed as 37, trifluoroacetate).
